Read-outs that look alike come from different tables or passages of the source.
Biological target: USP7 (Homo sapiens (Human), UniProt Q93009)
Test: USP7 fluorescence polarisation (FP) assay with ubiquitin-Lys-TAMRA substrate
Assay type: biochemical
Settings: biochemical inhibition
Method: USP7 activity was monitored in a fluorescence polarisation (FP) homogeneous assay using the isopeptide ubiquitin-Lys-TAMRA substrate (U-558, Boston Biochem). Full-length USP7 was purchased from Boston Biochem (His6-USP7FL, E-519). Unless otherwise stated, all other reagents were purchased from Sigma-Aldrich. Enzymatic reactions were conducted in black flat-bottom low volume polystyrene 384-well plates (Grenier) and 15 μL total volume. USP7 (2.5 nM, 5 μL) was incubated in assay buffer (50 mM HEPES (pH 7.2), 150 mM NaCl, 5 mM DTT, 0.05% BSA (w/v), 0.05% CHAPS) in the presence or absence of inhibitor (5 μL). Inhibitors were stored as 10 mM DMSO stocks in an inert environment (low humidity, dark, low oxygen, room temperature) using a Storage Pod System and serial dilutions were prepared in buffer just prior to the assay (from 200 to 0.003 μM, 11 dp curve). Following incubation at room temperature for 30 min, the enzymatic reactions were initiated by dispensing the Ub substrate (50 nM, 5 μL). FP was measured every 5 min over a period of 1.5 h (within the linear range of the assay) using a Pherastar FSX (BMG Labtech) exciting at 530 nm and measuring the amount of parallel and perpendicular light at 575 nm. The FP signal was subsequently normalised to the control without compound present. Data were plotted and fitted, and the concentrations resulting in 50% inhibition (IC50) were calculated using the non-linear regression curve fitting model using GraphPad Prism.

[1] = read-out: USP7 IC50 activity (Table 3a, classes)
[2] = unit not given in Table 3b (Table 1 and key of Table 3a use μM), read-out: USP7 IC50 activity (Table 3b)

USP7, sequence (Q93009 whole entry): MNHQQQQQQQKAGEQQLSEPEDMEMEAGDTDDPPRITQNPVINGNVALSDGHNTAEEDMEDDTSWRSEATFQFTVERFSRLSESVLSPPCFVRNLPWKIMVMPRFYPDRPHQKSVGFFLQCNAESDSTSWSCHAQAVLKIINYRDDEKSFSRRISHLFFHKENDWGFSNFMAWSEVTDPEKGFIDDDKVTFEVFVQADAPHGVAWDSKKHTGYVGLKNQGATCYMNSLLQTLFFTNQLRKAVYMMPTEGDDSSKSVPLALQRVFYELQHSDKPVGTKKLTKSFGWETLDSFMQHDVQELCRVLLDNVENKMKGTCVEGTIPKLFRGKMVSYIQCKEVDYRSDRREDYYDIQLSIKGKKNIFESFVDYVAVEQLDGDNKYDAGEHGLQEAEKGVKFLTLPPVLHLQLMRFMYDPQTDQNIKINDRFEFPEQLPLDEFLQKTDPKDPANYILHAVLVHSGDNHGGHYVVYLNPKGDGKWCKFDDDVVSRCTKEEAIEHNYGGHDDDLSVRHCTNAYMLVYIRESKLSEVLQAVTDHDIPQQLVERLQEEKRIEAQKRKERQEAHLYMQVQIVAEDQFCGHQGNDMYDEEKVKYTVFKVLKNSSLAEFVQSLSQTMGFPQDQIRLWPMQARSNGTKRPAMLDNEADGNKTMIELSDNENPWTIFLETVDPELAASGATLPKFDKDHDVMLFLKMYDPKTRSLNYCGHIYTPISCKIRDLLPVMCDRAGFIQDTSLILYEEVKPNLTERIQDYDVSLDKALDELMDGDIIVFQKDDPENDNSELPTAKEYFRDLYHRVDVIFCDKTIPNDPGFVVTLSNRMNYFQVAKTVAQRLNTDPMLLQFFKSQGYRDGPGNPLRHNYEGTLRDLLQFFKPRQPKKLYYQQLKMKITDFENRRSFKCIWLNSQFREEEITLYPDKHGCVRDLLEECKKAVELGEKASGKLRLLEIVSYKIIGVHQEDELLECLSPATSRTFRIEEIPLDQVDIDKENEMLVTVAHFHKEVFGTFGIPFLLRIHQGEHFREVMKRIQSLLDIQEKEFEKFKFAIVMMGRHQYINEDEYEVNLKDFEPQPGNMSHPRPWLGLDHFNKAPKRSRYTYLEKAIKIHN

| Structure (SMILES) | IC50 [1] [µM] | IC50 [2] [µM] |
| --- | --- | --- |
| CC1(C(=O)N2CCC(O)(Cn3cnc4c(cc(Cl)n4-c4ccc([C@@H]5COCCN5)cc4)c3=O)CC2)CC1 (single isomer, unassigned) [Example 71] | < 0.1 | 0.094 |
| Cc1cc(-n2c(Cl)cc3c(=O)n(CC4(O)CCN(C(=O)C5(C)CC5)CC4)cnc32)ccc1[C@H]1COCCN1 (single isomer, unassigned) [Example 73] | < 0.1 | 0.018 |
| Cc1cc(-n2c(Cl)cc3c(=O)n(CC4(O)CCN(C(=O)C5(C)CC5)CC4)cnc32)ccc1[C@@H]1COCCN1 (single isomer, unassigned) [Example 74] | 0.1 to 0.25 | 0.112 |
| O=C(c1ccc(Cl)cc1)N1CCC(O)(Cn2cnc3c(cc(Cl)n3-c3ccc([C@H]4COCCN4)cc3)c2=O)CC1 (single isomer, unassigned) [Example 76] | < 0.1 | 0.038 |
| O=C(c1ccc(Cl)cc1)N1CCC(O)(Cn2cnc3c(cc(Cl)n3-c3ccc([C@@H]4COCCN4)cc3)c2=O)CC1 (single isomer, unassigned) [Example 77] | < 0.1 | 0.052 |
| O=C(C[C@H](c1ccccc1)C(F)(F)F)N1CCC(O)(Cn2cnc3c(cc(Cl)n3-c3ccc([C@H]4COCCN4)cc3)c2=O)CC1 (single isomer, unassigned) [Example 78] | < 0.1 | 0.016 |
| O=C(N1CCC(O)(Cn2cnc3c(cc(Cl)n3-c3ccc([C@H]4COCCN4)cc3)c2=O)CC1)C1(C2CC2)CC1 (single isomer, unassigned) [Example 79] | < 0.1 | 0.039 |
| O=C(N1CCC(O)(Cn2cnc3c(cc(Cl)n3-c3ccc([C@@H]4COCCN4)cc3)c2=O)CC1)C1(C2CC2)CC1 (single isomer, unassigned) [Example 80] | < 0.1 | 0.041 |
| O=C(C[C@H](c1ccccc1)C(F)(F)F)N1CCC(O)(Cn2cnc3c(cc(Cl)n3-c3ccc([C@@H]4COCCN4)cc3)c2=O)CC1 (single isomer, unassigned) [Example 81] | < 0.1 | 0.015 |
| O=C(C[C@H](c1ccccc1)C(F)F)N1CCC(O)(Cn2cnc3c(cc(Cl)n3-c3ccc([C@@H]4COCCN4)cc3)c2=O)CC1 (single isomer, unassigned) [Example 85] | < 0.1 | 0.006 |
| CC1(C)CN[C@H](c2ccc(-n3c(Cl)cc4c(=O)n(CC5(O)CCN(C(=O)C6(C)CC6)CC5)cnc43)cc2)CO1 (single isomer, unassigned) [Example 98, (R)-6-Chloro-7-(4-(6,6-dimethylmorpholin-3-yl)phenyl)-3-((4-hydroxy-1-(1-methylcyclopropane-1-carbonyl)piperidin-4-yl)methyl)-3,7-dihydro-4H-pyrrolo[2,3-d]pyrimidin-4-one or (S)-6-chloro-7-(4-(6,6-dimethylmorpholin-3-yl)phenyl)-3-((4-hydroxy-1-(1-methylcyclopropane-1-carbonyl)piperidin-4-yl)methyl)-3,7-dihydro-4H-pyrrolo[2,3-d]pyrimidin-4-one] | < 0.1 | 0.045 |
| C[C@@]1(C(=O)N2CCC(O)(Cn3cnc4c(cc(Cl)n4-c4ccc([C@H]5COCCN5)cc4)c3=O)CC2)C[C@H]1C(F)(F)F (single isomer, unassigned) [Example 110, 6-Chloro-3-((4-hydroxy-1-((1R,2R)-1-methyl-2-(trifluoromethyl)cyclopropane-1-carbonyl)piperidin-4-yl)methyl)-7-(4-((S)-morpholin-3-yl)phenyl)-3,7-dihydro-4H-pyrrolo[2,3-d]pyrimidin-4-one or 6-chloro-3-((4-hydroxy-1-((1R,2R)-1-methyl-2-(trifluoromethyl)cyclopropane-1-carbonyl)piperidin-4-yl)methyl)-7-(4-((R)-morpholin-3-yl)phenyl)-3,7-dihydro-4H-pyrrolo[2,3-d]pyrimidin-4-one] | < 0.1 | 0.079 |
